Laboratory results as given in US12077503B2, “Substituted cyclic amides and their use as herbicides” (FMC CORPORATION, priority 2015, dated 2024).
Read-outs that look alike come from different tables or passages of the source.

Key:
Type in all cases: in vivo
[1] = tested on: ryegrass, Italian (Italian ryegrass, Lolium multiflorum); experiment: Test A postemergence; conditions: Lolium multiflorum, post-emergence, 240 h, postemergence; for pest or weed control at 125 g/ha: 125 g ai/ha
Method in brief: (§1)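 Compounds were formulated in a non-phytotoxic solvent mixture with surfactant and applied as a preemergence directed soil spray after seeding, or sprayed postemergence over plants 2 to 10 cm tall at the one- to two-leaf stage. Evaluation after about 10 d compared treated with untreated controls, using a scale from 0 (no effect) to 100 (complete control).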

[2] = tested on: blackgrass (Alopecurus myosuroides); experiment: Test A postemergence; conditions: Alopecurus myosuroides, post-emergence, 240 h, postemergence; for pest or weed control at 125 g/ha: 125 g ai/ha
Method in brief: as §1

[3] = tested on: pigweed (Amaranthus retroflexus); experiment: Test A postemergence; conditions: Amaranthus retroflexus, post-emergence, 240 h, postemergence; for pest or weed control at 125 g/ha: 125 g ai/ha
Method in brief: as §1

corn (Zea mays) = experiment: Test A postemergence; conditions: Zea mays, post-emergence, 240 h, postemergence; for Corn plant response rating (crop injury, 0 = no effect, 100 = complete kill) at 125 g/ha: visual injury after approximately 10 d, 0 to 100 scale (0 no effect, 100 complete control)
Method in brief: as §1

Kochia (Kochia scoparia) = experiment: Test A postemergence; conditions: Bassia scoparia, post-emergence, 240 h, postemergence; for pest or weed control at 125 g/ha: 125 g ai/ha
Method in brief: as §1

[4] = tested on: wheat (Triticum aestivum); experiment: Test A postemergence; conditions: Triticum aestivum, post-emergence, 240 h, postemergence; for plant injury at 125 g/ha: 125 g ai/ha
Method in brief: as §1

[5] = tested on: giant foxtail (Setaria faberii); experiment: Test A postemergence; conditions: Setaria faberi, post-emergence, 240 h, postemergence; for pest or weed control at 125 g/ha: 125 g ai/ha
Method in brief: as §1

[6] = tested on: Galium (catchweed bedstraw, Galium aparine); experiment: Test A postemergence; conditions: Galium, post-emergence, 240 h, postemergence; for pest or weed control at 125 g/ha: 125 g ai/ha
Method in brief: as §1

[7] = tested on: barnyardgrass (Echinochloa crus-galli); experiment: Test A postemergence; conditions: Echinochloa crus-galli, post-emergence, 240 h, postemergence; for pest or weed control at 125 g/ha: 125 g ai/ha
Method in brief: as §1

[8] = tested on: ragweed (common ragweed, Ambrosia elatior); experiment: Test A postemergence; conditions: Ambrosia artemisiifolia, post-emergence, 240 h, postemergence; for pest or weed control at 125 g/ha: 125 g ai/ha
Method in brief: as §1

rice (Oryra sativa) = experiment: Test B flooded paddy test; conditions: Oryza sativa, Flood, 250 g ai/ha, read-out: Rice plant response rating
Method in brief: (§2)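 Evaluation by eye, against controls, occurred 13–15 d post-treatment in a greenhouse, using a 0 (no effect) to 100 (complete control) scale. Application was into the paddy water, 3 cm deep over the soil, on 2-leaf plants.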

[9] = tested on: sedge, umbrella (small-flower umbrella sedge, Cyperus difformis); experiment: Test B flooded paddy test; conditions: Cyperus difformis, Flood, 250 g ai/ha, read-out: Sedge, Umbrella plant response rating
Method in brief: as §2

[10] = tested on: ducksalad (Heteranthera limosa); experiment: Test B flooded paddy test; conditions: Heteranthera limosa, Flood, 250 g ai/ha, read-out: Ducksalad plant response rating
Method in brief: as §2

[11] = tested on: barnyardgrass (Echinochloa crus-galli); experiment: Test B flooded paddy test; conditions: Echinochloa crus-galli, Flood, 250 g ai/ha, read-out: Barnyardgrass plant response rating
Method in brief: as §2

[12] = visual injury after approximately 10 d, 0 to 100 scale (0 no effect, 100 complete control), read-out: Plant response rating, Ryegrass, Italian
[13] = visual injury after approximately 10 d, 0 to 100 scale (0 no effect, 100 complete control), read-out: Plant response rating, Blackgrass
[14] = visual injury after approximately 10 d, 0 to 100 scale (0 no effect, 100 complete control), read-out: Plant response rating, Pigweed
[15] = visual injury after approximately 10 d, 0 to 100 scale (0 no effect, 100 complete control), read-out: Plant response rating, Kochia
[16] = visual injury after approximately 10 d, 0 to 100 scale (0 no effect, 100 complete control), read-out: Plant response rating, Wheat
[17] = visual injury after approximately 10 d, 0 to 100 scale (0 no effect, 100 complete control), read-out: Plant response rating, Foxtail, Giant
[18] = visual injury after approximately 10 d, 0 to 100 scale (0 no effect, 100 complete control), read-out: Plant response rating, Galium
[19] = visual injury after approximately 10 d, 0 to 100 scale (0 no effect, 100 complete control), read-out: Plant response rating, Barnyardgrass
[20] = visual injury after approximately 10 d, 0 to 100 scale (0 no effect, 100 complete control), read-out: Plant response rating, Ragweed
[21] = scale of 0 to 100 where 0 is no effect and 100 is complete control
[22] = 0 to 100 scale where 0 is no effect and 100 is complete control

O=C1NC[C@H](c2ccc3c(c2)CCO3)[C@H]1C(=O)Nc1ccccc1F [Compound 786]
pest or weed control at 125 g/ha [1, 12]: 0%
pest or weed control at 125 g/ha [2, 13]: 0%
pest or weed control at 125 g/ha [3, 14]: 0%
Corn plant response rating (crop injury, 0 = no effect, 100 = complete kill) at 125 g/ha (corn (Zea mays); 125 g ai/ha): 0%
pest or weed control at 125 g/ha (Kochia (Kochia scoparia); [15]): 0%
plant injury at 125 g/ha [4, 16]: 0%
pest or weed control at 125 g/ha [5, 17]: 40%
pest or weed control at 125 g/ha [6, 18]: 10%
pest or weed control at 125 g/ha [7, 19]: 80%
pest or weed control at 125 g/ha [8, 20]: 0%
pest or weed control at 250 g/ha (rice (Oryra sativa); [21]): 0%
pest or weed control at 250 g/ha [9, 21]: 40%
pest or weed control at 250 g/ha [10, 21]: 70%
pest or weed control at 250 g/ha [11, 21]: 0%

CN1C[C@H](c2nccs2)[C@@H](C(=O)Nc2cccc(F)c2F)C1=O [Compound 774]
pest or weed control at 125 g/ha [1, 12]: 0%
pest or weed control at 125 g/ha [2, 13]: 0%
pest or weed control at 125 g/ha [3, 14]: 0%
Corn plant response rating (crop injury, 0 = no effect, 100 = complete kill) at 125 g/ha (corn (Zea mays); 125 g ai/ha): 0%
pest or weed control at 125 g/ha (Kochia (Kochia scoparia); [15]): 0%
plant injury at 125 g/ha [4, 16]: 0%
pest or weed control at 125 g/ha [5, 17]: 0%
pest or weed control at 125 g/ha [6, 18]: 0%
pest or weed control at 125 g/ha [7, 19]: 0%
pest or weed control at 125 g/ha [8, 20]: 0%
pest or weed control at 250 g/ha (rice (Oryra sativa); [21]): 0%
pest or weed control at 250 g/ha [9, 21]: 0%
pest or weed control at 250 g/ha [10, 21]: 0%
pest or weed control at 250 g/ha [11, 21]: 0%

CSc1ccccc1NC(=O)[C@H]1C(=O)N(C)CC[C@@H]1c1ccc(C(F)(F)F)cc1 [Compound 1227]
pest or weed control at 125 g/ha ([1]; visual injury vs untreated controls after approx. 10 d, 0 = no effect, 100 = complete control, read-out: Ryegrass, Italian plant response rating (0 to 100 scale)): 0%
pest or weed control at 500 g/ha ([1]; 500 g ai/ha, 0 to 100 scale, 0 is no effect, 100 is complete control, read-out: Ryegrass, Italian plant response rating): 0%
pest or weed control at 125 g/ha ([2]; visual injury vs untreated controls after approx. 10 d, 0 = no effect, 100 = complete control, read-out: Blackgrass plant response rating (0 to 100 scale)): 0%
pest or weed control at 500 g/ha ([2]; 500 g ai/ha, 0 to 100 scale, 0 is no effect, 100 is complete control, read-out: Blackgrass plant response rating): 0%
pest or weed control at 125 g/ha ([3]; visual injury vs untreated controls after approx. 10 d, 0 = no effect, 100 = complete control, read-out: Pigweed plant response rating (0 to 100 scale)): 20%
pest or weed control at 500 g/ha ([3]; 500 g ai/ha, 0 to 100 scale, 0 is no effect, 100 is complete control, read-out: Pigweed plant response rating): 30%
plant injury at 125 g/ha (corn (Zea mays); 125 g ai/ha, visual injury vs untreated controls after approx. 10 d, 0 = no effect, 100 = complete control, read-out: Corn plant response rating (0 to 100 scale)): 0%
plant injury at 500 g/ha (corn (Zea mays); 500 g ai/ha, 0 to 100 scale, 0 is no effect, 100 is complete control, read-out: Corn plant response rating): 0%
pest or weed control at 125 g/ha (Kochia (Kochia scoparia); visual injury vs untreated controls after approx. 10 d, 0 = no effect, 100 = complete control, read-out: Kochia plant response rating (0 to 100 scale)): 0%
pest or weed control at 500 g/ha (Kochia (Kochia scoparia); 500 g ai/ha, 0 to 100 scale, 0 is no effect, 100 is complete control, read-out: Kochia plant response rating): 30%
plant injury at 125 g/ha ([4]; visual injury vs untreated controls after approx. 10 d, 0 = no effect, 100 = complete control, read-out: Wheat plant response rating (0 to 100 scale)): 0%
plant injury at 500 g/ha ([4]; 500 g ai/ha, 0 to 100 scale, 0 is no effect, 100 is complete control, read-out: Wheat plant response rating): 0%
pest or weed control at 125 g/ha ([5]; visual injury vs untreated controls after approx. 10 d, 0 = no effect, 100 = complete control, read-out: Foxtail, Giant plant response rating (0 to 100 scale)): 0%
pest or weed control at 500 g/ha ([5]; 500 g ai/ha, 0 to 100 scale, 0 is no effect, 100 is complete control, read-out: Foxtail, Giant plant response rating): 0%
pest or weed control at 125 g/ha ([6]; visual injury vs untreated controls after approx. 10 d, 0 = no effect, 100 = complete control, read-out: Galium plant response rating (0 to 100 scale)): 0%
pest or weed control at 500 g/ha ([6]; 500 g ai/ha, 0 to 100 scale, 0 is no effect, 100 is complete control, read-out: Galium plant response rating): 0%
pest or weed control at 125 g/ha ([7]; visual injury vs untreated controls after approx. 10 d, 0 = no effect, 100 = complete control, read-out: Barnyardgrass plant response rating (0 to 100 scale)): 0%
pest or weed control at 500 g/ha ([7]; 500 g ai/ha, 0 to 100 scale, 0 is no effect, 100 is complete control, read-out: Barnyardgrass plant response rating): 70%
pest or weed control at 125 g/ha ([8]; visual injury vs untreated controls after approx. 10 d, 0 = no effect, 100 = complete control, read-out: Ragweed plant response rating (0 to 100 scale)): 0%
pest or weed control at 500 g/ha ([8]; 500 g ai/ha, 0 to 100 scale, 0 is no effect, 100 is complete control, read-out: Ragweed plant response rating): 0%
pest or weed control at 250 g/ha (rice (Oryra sativa); [22]): 15%
pest or weed control at 250 g/ha [9, 22]: 0%
pest or weed control at 250 g/ha [10, 22]: 80%
pest or weed control at 250 g/ha [11, 22]: 0%
